# Data: patent publication US11458141B2, “Aryl hydrocarbon receptor (AhR) agonists for the prevention and treatment of inflammatory disorders” (The Johns Hopkins University, priority 2017, dated 2022)
# Entries after “also recorded” stand apart in the source; their conditions may differ.
# How the values were obtained:
# Assay type in all cases: in vivo, mouse
# mice with NEC = test: Maternal I3C administration, Tnf alpha and Il6 mRNA in ileum of offspring with NEC; settings: mums 25 mg/kg oral gavage E7 to P7, NEC groups
# Procedure: The pups whose mums received 25 mg/kg indole-3-carbinol (13C) by oral gavage starting from the embryonic age 7 (E7) of the fetus until the postnatal day 7 (P7) were included in maternal […]-rich group, while the pups whose mums received vehicle were included in maternal […]-free group. Necrotizing enterocolitis (NEC) was induced in 7-day-old mouse pups by gavage feeding and hypoxia exposure for 4 days. The ileum was harvested at the end of experiment and the mRNA expression of target genes was analyzed by qPCR. Referring now to FIG. 8, the mRNA expression of pro-inflammatory cytokine tumor necrosis factor alpha (Tnf alpha) was quantified in the ileum of experimental NEC models. Data are represented as mean±SEM; *p<0.05 between indicated groups; each dot represents an individual mouse. […] Referring now to FIG. 9, the mRNA expression of pro-inflammatory cytokine Interleukin-6 (Il6) was quantified in the ileum of experimental NEC models. Data are represented as mean±SEM; *p<0.05 between indicated groups; each dot represents an individual mouse.
# Tlr4 mRNA in the ileum = test: Ileal Tlr4 mRNA and microRNA expression in neonatal mice given I3C; settings: 7-day-old mice, 25 mg/kg oral gavage, after 24 hours
# Procedure: Neonatal mice at the age of 7 days old were given AHR agonist […] (25 mg/kg) via oral gavage, and the ileal expression of Tlr4 mRNA and microRNAs, which have been reported to down-regulate Tlr4 transcription, were quantified after 24 hours. Referring now to FIG. 24, the mRNA expression of Tlr4 was quantified in the ileum of neonatal mice treated with AHR agonist […]. Data are represented as mean±SEM; *p<0.05 between indicated groups; each dot represents an individual mouse. […] Referring now to FIG. 25, the expression of let-71, miR-223, and miR-146b, which are microRNAs known to inhibit Tlr4 mRNA expression, was quantified in the ileum of neonatal mice treated with AHR agonist […]. Data are represented as mean±SEM; *p<0.05 between indicated groups; each dot represents an individual mouse.
# [1] = test system: TLR4 signaling in the intestinal epithelium; test: LPS-induced TLR4 signaling and Cypla1 in the intestinal mucosa of mice
# From the text: In seeking to investigate how AHR signaling attenuates NEC severity, whether AHR activation could limit the degree of TLR4 signaling in the gut was investigated. To do so, enteroids were derived from wild-type mice, which are intestinal cultures containing all cell lineages derived from intestinal crypts, as have been described.
smiles,measurement,setting,value
"OCc1c[nH]c2ccccc12 [I3C, indole-3-carbinol]",Il6 mRNA expression in offspring,mice with NEC,significantly reduced the Il6 expression
same,Tnf alpha mRNA expression in offspring,mice with NEC,significantly reduced the Tnf alpha expression
same,expression of let-7i in the ileum,Tlr4 mRNA in the ileum,significantly increased
same,expression of miR-146b in the ileum,Tlr4 mRNA in the ileum,significantly increased
same,expression of miR-223 in the ileum,Tlr4 mRNA in the ileum,significantly increased
same,mRNA expression of Tlr4 in the ileum,Tlr4 mRNA in the ileum,significantly reduced the expression of Tlr4 mRNA
same,enterocyte apoptosis after TLR4 activation,"[1]; intestinal mucosa, I3C, LPS",reversed the deleterious effects of TLR4 activation on enterocyte apoptosis; also recorded: reverses LPS induced apoptosis
same,mucosal healing / proliferation after TLR4 activation,"[1]; intestinal mucosa, I3C, LPS",improved mucosal healing; also recorded: reverses LPS induced apoptosis and impaired proliferation
same,TLR4-induced (LPS) cytokine induction in the intestinal mucosa,"[1]; wild type mice, I3C 50 mg/kg, LPS 5 mg/kg",reduced TLR4-induced (LPS 5 mg/kg) cytokine induction; also recorded: reduces TLR4 signaling; also recorded: reduces LPS-induced IL-6
same,Cypla1 expression,"[1]; wild-type mice, I3C 50 mg/kg",induced Cypla1 expression; also recorded: increases Cypla1
